Results on 19 molecules are retold here after patent US20240217983A1, “GPR119 AGONISTS” (Kallyope, Inc., priority 2021, published 2024).

Molecules are shown by their SMILES. pEC50: −log10 of the molar value.

This test deals with T1, human GPR119 (hGPR119) (Homo sapiens, UniProt Q8TDV5).
T1 construct: expressed in transfected cells
T1 sequence (Q8TDV5 1-335): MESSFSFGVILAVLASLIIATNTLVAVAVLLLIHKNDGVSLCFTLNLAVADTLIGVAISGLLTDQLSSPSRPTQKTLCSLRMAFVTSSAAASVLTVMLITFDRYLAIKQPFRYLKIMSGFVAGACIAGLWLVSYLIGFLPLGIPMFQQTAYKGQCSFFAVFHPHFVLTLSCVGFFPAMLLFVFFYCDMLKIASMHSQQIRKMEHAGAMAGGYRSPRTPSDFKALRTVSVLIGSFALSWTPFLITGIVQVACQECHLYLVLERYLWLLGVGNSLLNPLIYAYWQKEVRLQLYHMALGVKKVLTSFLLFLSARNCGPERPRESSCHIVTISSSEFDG
In words: cAMP accumulation assay (Cisbio cAMP Gs dynamic HTRF kit) in CHO-K1 cells stably expressing human GPR119. Type of test: cell-based. As to conditions: 4-parameter fit; for Emax: 1 h, % activity normalized to Max and Min controls; for pEC50: 60 minutes at 37° C. The procedure: CHO-K1 cells stably expressing human GPR119 (hGPR119) were prepared by transfection of a GPR119-carrying plasmid using Lipofectamine 2000 (following manufacturer instructions). A stable cell line was established using the limiting dilution method with geneticine selection. Assay-ready frozen (ARF) cells were prepared and used throughout the study.
The assay was performed in a 384-well plate format using the cAMP Gs dynamic assay kit from Cisbio. ARF cells expressing hGPR119 were thawed, washed and then resuspended in cAMP stimulation buffer at a cell density of 1.1×10^6 cells/mL. Cells were plated at a density of ˜10,000 cells/well (9 μL/well). Dose response curves for the tested compounds were prepared in a cAMP stimulation buffer, containing 0.1% Tween 80 at 4 fold the final concentration. The compounds were then transferred to the cell plates using BRAVO (3 μL/well) and the plates were incubated for 60 minutes at 37° C./5% CO2. Detection buffer (10 μL, prepared as described in the cAMP Gs dynamic kit) were added to each well, and the plates were incubated at ambient temperature for 1 hr.
RT-FRET was measured using a ClarioSTAR plate reader, calculating the ratio between emissions at 665 nm and 620 nm (HTRF ratio). The HTRF ratio for positive (Max) and negative (Min) controls were used to normalize HTRF data and generate values for % activity. EC50 and Max activity values were determined using a standard 4-parameter fit.
(Cyclic AMP is a second messenger, typically raised through Gs and lowered through Gi signalling.)

Usually Emax stands for the size of the effect at its maximum, as opposed to the concentration needed. By pEC50 is commonly meant the EC50 on a negative log10 scale, so that one unit is a factor of ten. A high value points to a small EC50. Turning to `O=C(Cc1ccc(OCCCC2CCN(c3ncc(Cl)cn3)CC2)cc1F)N1CC2(CCN2C(=O)CCCCS(=O)(=O)O)C1` [Example 5, 5-(6-(2-(4-(3-(1-(5-chloropyrimidin-2-yl)piperidin-4-yl)propoxy)-2-fluorophenyl)acetyl)-1,6-diazaspiro[3.3]heptan-1-yl)-5-oxopentane-1-sulfonic acid], the Emax was 100 to 130% and the pEC50 is ≥ 7.00.

As for `O=C(Cc1ccc(OCCCC2CCN(c3ncc(Cl)cn3)CC2)cc1F)N1C[C@@H]2CCN(C(=O)CCCCS(=O)(=O)O)[C@@H]2C1` [Example 6, 5-((3aS,6aS)-5-(2-(4-(3-(1-(5-chloropyrimidin-2-yl)piperidin-4-yl)propoxy)-2-fluorophenyl)acetyl)hexahydropyrrolo[3,4-b]pyrrol-1(2H)-yl)-5-oxopentane-1-sulfonic acid], the Emax is ≥ 130% and the negative-log EC50 (pEC50) is ≥ 7.00.

`O=C(Cc1ccc(OCCCC2CCN(c3ncc(Cl)cn3)CC2)cc1F)N1C[C@H]2CN(C(=O)CCCCS(=O)(=O)O)[C@H]2C1` [Example 7, 5-((1S,5R)-3-(2-(4-(3-(1-(5-chloropyrimidin-2-yl)piperidin-4-yl)propoxy)-2-fluorophenyl)acetyl)-3,6-diazabicyclo[3.2.0]heptan-6-yl)-5-oxopentane-1-sulfonic acid] gave an Emax of 100 to 130% and a pEC50 of 6.00 to 7.00.

Consider `O=C(CCCCS(=O)(=O)O)N1C[C@H]2CN(C(=O)Cc3ccc(OCCCC4CCN(c5ncc(Cl)cn5)CC4)cc3F)[C@H]2C1` [Example 8, 5-((1S,5R)-6-(2-(4-(3-(1-(5-chloropyrimidin-2-yl)piperidin-4-yl)propoxy)-2-fluorophenyl)acetyl)-3,6-diazabicyclo[3.2.0]heptan-3-yl)-5-oxopentane-1-sulfonic acid], for which the Emax fell in the range of 100 to 130% and the pEC50 was ≥ 7.00.

Take `O=C(CCCCS(=O)(=O)O)N1CC2(CCN2C(=O)Cc2ccc(OCCCC3CCN(c4ncc(Cl)cn4)CC3)cc2F)C1` [Example 9, 5-(1-(2-(4-(3-(1-(5-chloropyrimidin-2-yl)piperidin-4-yl)propoxy)-2-fluorophenyl)acetyl)-1,6-diazaspiro[3.3]heptan-6-yl)-5-oxopentane-1-sulfonic acid]: the Emax was in the range of 100 to 130% and the pEC50 is < 5.00.

For the molecule `O=C(CCCCS(=O)(=O)O)N1C[C@@H]2CN(C(=O)Cc3ccc(OCCCC4CCN(c5ncc(Cl)cn5)CC4)cc3F)C[C@@H]2C1` [Example 10, 5-((3aR,6aS)-5-(2-(4-(3-(1-(5-chloropyrimidin-2-yl)piperidin-4-yl)propoxy)-2-fluorophenyl)acetyl)hexahydropyrrolo[3,4-c]pyrrol-2(1H)-yl)-5-oxopentane-1-sulfonic acid], the Emax was 100 to 130% and the pEC50 is ≥ 7.00.

With `O=C(CCCCS(=O)(=O)O)N1C[C@H]2C[C@@H]1CN2C(=O)Cc1ccc(OCCCC2CCN(c3ncc(Cl)cn3)CC2)cc1F` [Example 11, 5-((1R,4R)-5-(2-(4-(3-(1-(5-chloropyrimidin-2-yl)piperidin-4-yl)propoxy)-2-fluorophenyl)acetyl)-2,5-diazabicyclo[2.2.1]heptan-2-yl)-5-oxopentane-1-sulfonic acid], the maximal effect (Emax) was 100 to 130% and the pEC50 is ≥ 7.00.

On to `O=C(Cc1ccc(OCCCC2CCN(c3ncc(Cl)cn3)CC2)cc1F)N1CC2CC(C1)N2C(=O)CCCCS(=O)(=O)O` [Example 12, 5-(3-(2-(4-(3-(1-(5-chloropyrimidin-2-yl)piperidin-4-yl)propoxy)-2-fluorophenyl)acetyl)-3,6-diazabicyclo[3.1.1]heptan-6-yl)-5-oxopentane-1-sulfonic acid], for which the Emax was 100 to 130% and the pEC50 was ≥ 7.00.

On to `O=C(CCCCS(=O)(=O)O)N1CCCN(C(=O)Cc2ccc(OCCCC3CCN(c4ncc(Cl)cn4)CC3)cc2F)CC1` [Example 13, 5-(4-(2-(4-(3-(1-(5-chloropyrimidin-2-yl)piperidin-4-yl)propoxy)-2-fluorophenyl)acetyl)-1,4-diazepan-1-yl)-5-oxopentane-1-sulfonic acid], for which the Emax was 100 to 130% and the pEC50 was 6.00 to 7.00.

In the case of `O=C(CCCCS(=O)(=O)O)N1CC2CCC1CN2C(=O)Cc1ccc(OCCCC2CCN(c3ncc(Cl)cn3)CC2)cc1F` (centres unmarked) [Example 14, 5-(5-(2-(4-(3-(1-(5-chloropyrimidin-2-yl)piperidin-4-yl)propoxy)-2-fluorophenyl)acetyl)-2,5-diazabicyclo[2.2.2]octan-2-yl)-5-oxopentane-1-sulfonic acid], the Emax was 100 to 130% and the pEC50 was ≥ 7.00.

In the case of `O=C(CCCCS(=O)(=O)O)N1C[C@@H]2C[C@H]1CN2C(=O)Cc1ccc(OCCCC2CCN(c3ncc(Cl)cn3)CC2)cc1F` [Example 15, 5-((1S,4S)-5-(2-(4-(3-(1-(5-chloropyrimidin-2-yl)piperidin-4-yl)propoxy)-2-fluorophenyl)acetyl)-2,5-diazabicyclo[2.2.1]heptan-2-yl)-5-oxopentane-1-sulfonic acid], the Emax lay within 100 to 130% and the negative logarithm of the EC50 (pEC50) is ≥ 7.00.

With `O=C(CCCCS(=O)(=O)O)N1CC2CC(C1)N2C(=O)Cc1ccc(OCCCC2CCN(c3ncc(Cl)cn3)CC2)cc1F` [Example 16, 5-(6-(2-(4-(3-(1-(5-chloropyrimidin-2-yl)piperidin-4-yl)propoxy)-2-fluorophenyl)acetyl)-3,6-diazabicyclo[3.1.1]heptan-3-yl)-5-oxopentane-1-sulfonic acid], the Emax is 100 to 130% and the pEC50 is ≥ 7.00.

The molecule `O=C(CCCCS(=O)(=O)O)N1CCN(C(=O)Cc2ccc(OCCCC3CCN(c4ncc(Cl)cn4)CC3)cc2F)C2CC21` (centres unmarked) [Example 17, 5-(5-(2-(4-(3-(1-(5-chloropyrimidin-2-yl)piperidin-4-yl)propoxy)-2-fluorophenyl)acetyl)-2,5-diazabicyclo[4.1.0]heptan-2-yl)-5-oxopentane-1-sulfonic acid] gave an Emax of 100 to 130% and a pEC50 of 6.00 to 7.00.

Consider `O=C(Cc1ccc(OCCCC2CCN(c3ncc(Cl)cn3)CC2)cc1F)N1CC2(CCCN2C(=O)CCCCS(=O)(=O)O)C1` [Example 18, 5-(2-(2-(4-(3-(1-(5-chloropyrimidin-2-yl)piperidin-4-yl)propoxy)-2-fluorophenyl)acetyl)-2,5-diazaspiro[3.4]octan-5-yl)-5-oxopentane-1-sulfonic acid], for which the Emax is 100 to 130% and the pEC50 is ≥ 7.00.

Consider `O=C(Cc1ccc(OCCCC2CCN(c3ncc(Cl)cn3)CC2)cc1F)N1CC2(C1)N(C(=O)CCCCS(=O)(=O)O)CC2(F)F` [Example 19, 5-(6-(2-(4-(3-(1-(5-chloropyrimidin-2-yl)piperidin-4-yl)propoxy)-2-fluorophenyl)acetyl)-3,3-difluoro-1,6-diazaspiro[3.3]heptan-1-yl)-5-oxopentane-1-sulfonic acid], for which the Emax was in the range of 100 to 130% and the pEC50 was ≥ 7.00.

As for `O=C(Cc1ccc(OCCCC2CCN(c3ncc(Cl)cn3)CC2)cc1F)N1C[C@H]2CCN(C(=O)CCCCS(=O)(=O)O)[C@H]2C1` [Example 20, 5-((3aR,6aR)-5-(2-(4-(3-(1-(5-chloropyrimidin-2-yl)piperidin-4-yl)propoxy)-2-fluorophenyl)acetyl)hexahydropyrrolo[3,4-b]pyrrol-1(2H)-yl)-5-oxopentane-1-sulfonic acid], the Emax was 100 to 130% and the pEC50 was ≥ 7.00.

Turning to `O=C(Cc1ccc(OCCCC2CCN(c3ncc(Cl)cn3)CC2)cc1F)N1CCC2(CC1)CCN2C(=O)CCCCS(=O)(=O)O` [Example 21, 5-(7-(2-(4-(3-(1-(5-chloropyrimidin-2-yl)piperidin-4-yl)propoxy)-2-fluorophenyl)acetyl)-1,7-diazaspiro[3.5]nonan-1-yl)-5-oxopentane-1-sulfonic acid], the Emax is 100 to 130% and the pEC50 was ≥ 7.00.

`O=C(Cc1ccc(OCCCC2CCN(c3ncc(Cl)cn3)CC2)cc1F)N1CCC2(CC1)CN(C(=O)CCCCS(=O)(=O)O)C2` [Example 22, 5-(7-(2-(4-(3-(1-(5-chloropyrimidin-2-yl)piperidin-4-yl)propoxy)-2-fluorophenyl)acetyl)-2,7-diazaspiro[3.5]nonan-2-yl)-5-oxopentane-1-sulfonic acid] showed an Emax of 100 to 130% and a pEC50 of 6.00 to 7.00.

For `O=C(CCCCS(=O)(=O)O)N1CCN(C(=O)Cc2ccc(OCCCC3CCN(c4ncc(Cl)cn4)CC3)cc2F)CC1` [Example 23, 5-(4-(2-(4-(3-(1-(5-chloropyrimidin-2-yl)piperidin-4-yl)propoxy)-2-fluorophenyl)acetyl)piperazin-1-yl)-5-oxopentane-1-sulfonic acid], the Emax is 100 to 130% and the pEC50 is ≥ 7.00.
